Laboratory results as given in US12319659B2, “Selective ligand for dopamine D3 receptor, preparation method therefor, and pharmaceutical application thereof” (Shenzhen Linglan Bio-Pharmaceutical Technology Co., Ltd, priority 2017, dated 2025).
Structures can show the parent of a compound that is named as a salt. Where two headings read alike, the source gives them in different places.

Key:
dopamine D2 receptor [1] = biological target: T1, dopamine D2 receptor (Homo sapiens, UniProt P14416); assay: Competitive inhibition test using radioligands ([3H]-sulpiride), D2 receptor; format: binding; conditions: for Ki: [3H]-sulpiride competition, HEK-293 cells, read-out: KiD2R; for D2 Receptor Displacement (%) / inhibition: [3H]-sulpiride; for inhibition: read-out: D2 Receptor Displacement (%)
T1 construct: expressed in transfected cells; host or cells: Human embryonic kidney-293 cells
Protocol: (§3) Human embryonic kidney-293 cells were cultured in fresh MEM medium containing 10% fetal bovine serum, 100 units of penicillin, and 100 μg/mL streptomycin at 37° C. under 5% CO2. Cells were transfected with DNA plasmids of dopamine D2 and D3 receptors respectively by using polyethylenimine. After transfection for 4 hours, medium was replaced with fresh MEM medium containing fetal bovine serum and the cells were further cultured for 24 hours. The cells were seeded into 24-well plates and cultured for 14-16 hours or overnight. After the medium was discarded, the cells were rinsed with pre-cooled serum-free MEM. Radioligand ([^3H]-sulpiride) and various concentrations of compounds were added into the adherent cells, and incubated in a bath at 4° C. for 150 minutes. The cells were rinsed three times with pre-cooled MEM containing 10 mM HEPES to remove unbound ligands. After the medium was completely removed, the cells were lysed with 1% sodium lauryl sulfate. The remaining radioligands were detected with a liquid scintillation counter to calculate the relative amount of bound compounds.

[2] = tested on: 6-OHDA-induced Parkinson's disease rats; assay: Rotarod assay in 6-hydroxydopamine-induced Parkinson's disease rats; format: in vivo, Sprague Dawley (SD) rats
Protocol: Experimental Sprague Dawley (SD) rats were randomly divided into an experimental group and a control group. After repeated behavior detection confirmed that there was no rotational behavior, the experiment was performed. Experimental group: rats were anesthetized with a mixture of xylazine (15 mg/kg, i.p.) and ketamine (100 mg/kg, i.p.), and then desipramine hydrochloride (25 mg/kg, s.c.) were used to protect noradrenergic neurons. 6 μg of 6-hydroxydopamine was dissolved in 2.3 μL of 0.9% sterile saline, and injected into the cerebral substantia nigra (antero-posterior −5.4 mm, […] from the bregma which was used as a zero coordinate) at a rate of 0.5 μL/min by using cerebral stereotaxic surgery. Rats in the control group were injected with the same dose of 0.9% sterile saline. After injection, the syringe needle was left in rats for 5 minutes before the needle was slowly withdrawn. After the rats awakened, they were placed in animal facilities for behavioral model evaluation to ensure that 6-hydroxydopamine induced the formation of a model with movement disorders and emotional/motivational disorders. Because hunger is prone to occur as a result of dopamine damage of the midbrain substantia nigra, 20% of rats were given high-calorie food for 1-2 weeks. After 19 days, the D3 receptor-selective ligand was continuously injected intraperitoneally for 3 days. Rats were allowed to accommodate the rotarod on days 19-20, and a rotarod assay was performed on days 21-22.

[3] = Solubility assay in anhydrous ethanol; format: physicochemical; conditions: organic solvent or mixture
Text: (§1) Solubility Assay of the D3 Receptor-Selective Ligand

[4] = Solubility assay in water; format: physicochemical
Text: as §1

dopamine D3 receptor [5] = biological target: T2, dopamine D3 receptor (Homo sapiens, UniProt P35462); assay: cell-based
Protocol: as §3

dopamine D3 receptor [6] = biological target: T2, dopamine D3 receptor
Protocol: as §3

dopamine D2 receptor [7] = biological target: T1, dopamine D2 receptor; assay: Intrinsic functional experiment, CRE luciferase reporter gene assay, D2 receptor; format: cell-based; conditions: 2 μM forskolin, HEK-293 cells, quinpirole positive control
Protocol: (§2) Human embryonic kidney-293 cells were transfected with complementary DNA of human dopamine D2, D3 and D4 receptors and a luciferase reporter gene transcriptionally controlled by CRE. The cells transfected with an empty vector were used as a negative control. The cells were seeded into 24-well plates, and 2 μM of forskolin and various concentrations of compounds were added. Cells added with quinpirole were used as a positive control group. After four hours' incubation, cells were lysed with cell lysis buffer for 20 minutes and then centrifuged. The supernatant was reacted with 25 μL of luciferase substrate and the expression level of luciferase was detected by using a dual luciferase reporter vector kit.

[8] = biological target: T3, human dopamine D4 receptor (Homo sapiens, UniProt P21917); assay: Intrinsic functional experiment, CRE luciferase reporter gene assay, D4 receptor; format: cell-based; conditions: 2 μM forskolin, HEK-293 cells, quinpirole positive control
T3 construct: expressed in transfected cells; host or cells: Human embryonic kidney-293 cells
T3 sequence (P21917 1-419): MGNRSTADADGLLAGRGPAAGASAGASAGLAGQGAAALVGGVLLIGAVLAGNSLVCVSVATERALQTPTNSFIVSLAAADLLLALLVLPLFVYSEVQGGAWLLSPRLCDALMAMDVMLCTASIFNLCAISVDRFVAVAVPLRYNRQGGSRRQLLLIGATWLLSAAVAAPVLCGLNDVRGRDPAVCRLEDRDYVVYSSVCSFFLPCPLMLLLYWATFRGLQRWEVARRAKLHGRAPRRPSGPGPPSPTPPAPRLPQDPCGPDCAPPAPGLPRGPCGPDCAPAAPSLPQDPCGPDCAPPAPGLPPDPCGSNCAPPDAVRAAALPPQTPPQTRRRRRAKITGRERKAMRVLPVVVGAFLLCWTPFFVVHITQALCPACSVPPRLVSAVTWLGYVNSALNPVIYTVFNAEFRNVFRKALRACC
Protocol: as §2

dopamine D3 receptor [9] = biological target: T2, dopamine D3 receptor; assay: Intrinsic functional experiment, CRE luciferase reporter gene assay, D3 receptor; format: cell-based; set-up: expressed in transfected cells; host or cells: Human embryonic kidney-293 cells; conditions: 2 μM forskolin, HEK-293 cells, quinpirole positive control
Protocol: as §2

[10] = arylpiperazine-arylurea compounds at 100 nM, HEK-293 cells (Table 2)
[11] = arylpiperazine-phthalimide compounds at 100 nM, HEK-293 cells (Table 1)
[12] = intraperitoneal for 3 days, 6-hydroxydopamine rats

T2 sequence (P35462 whole entry): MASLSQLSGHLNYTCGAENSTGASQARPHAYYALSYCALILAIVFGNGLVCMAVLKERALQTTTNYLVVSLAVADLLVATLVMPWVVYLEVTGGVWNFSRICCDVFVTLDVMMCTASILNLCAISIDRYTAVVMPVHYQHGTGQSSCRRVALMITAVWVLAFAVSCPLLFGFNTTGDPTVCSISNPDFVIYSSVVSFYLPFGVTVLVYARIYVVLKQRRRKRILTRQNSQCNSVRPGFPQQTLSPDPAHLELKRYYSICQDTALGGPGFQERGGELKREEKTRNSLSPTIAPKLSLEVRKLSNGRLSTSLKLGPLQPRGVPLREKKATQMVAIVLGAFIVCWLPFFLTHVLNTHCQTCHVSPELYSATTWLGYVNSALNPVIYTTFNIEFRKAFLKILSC
T1 sequence (P14416 whole entry): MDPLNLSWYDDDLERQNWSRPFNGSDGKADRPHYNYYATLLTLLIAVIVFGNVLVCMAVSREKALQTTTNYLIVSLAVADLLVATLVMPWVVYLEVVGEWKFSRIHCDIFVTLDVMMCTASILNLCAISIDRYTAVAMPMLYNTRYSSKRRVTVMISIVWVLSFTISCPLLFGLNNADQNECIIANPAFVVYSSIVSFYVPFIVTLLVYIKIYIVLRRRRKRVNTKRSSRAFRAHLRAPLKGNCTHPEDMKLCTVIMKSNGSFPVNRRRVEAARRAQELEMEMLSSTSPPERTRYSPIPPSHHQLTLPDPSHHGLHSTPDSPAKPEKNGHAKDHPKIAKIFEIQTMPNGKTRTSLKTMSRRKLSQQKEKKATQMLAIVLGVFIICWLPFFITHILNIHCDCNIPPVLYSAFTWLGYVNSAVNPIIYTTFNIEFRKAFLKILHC

For `O=C(NCCCCN1CCN(c2ccc(Cl)cc2)CC1)Nc1cnc2ccccc2c1` [8i•HCl, 1-(4-(4-(4-chlorophenyl)piperazin-1-yl)butyl)-3-(quinolin-3-yl)urea], which Ki (dopamine D2 receptor [1]) is on record?
Its Ki is 53.1 µM.

What about the “D2 Receptor Displacement (%)” value (dopamine D2 receptor [1]; [10]) of the same compound?
The value was 15.2 ± 1.6%.

And the “effect compared with apomorphine (positive control drug)” value ([2]; 6-hydroxydopamine rats)?
Its value is “comparable to the effect of apomorphine”.

And the “motor dysfunction induced by 6-hydroxydopamine” value ([2]; intraperitoneal for 3 days)?
Its value is “significantly improved”.

And the solubility ([3]; 8.53 mg/mL)?
The solubility was < 8530 µg/mL.

And the solubility ([3]; 25.6 mg/mL)?
The solubility was < 8530 µg/mL.

And the Solubility in water ([4]; 1 mg/mL)?
The Solubility in water was “+ (+ indicates that the compound was completely dissolved)”.

And the Solubility in water ([4]; 3 mg/mL)?
Its Solubility in water is “+ (+ indicates that the compound was completely dissolved)”.

And the Solubility in water ([4]; 6 mg/mL)?
The Solubility in water was “+ (+ indicates that the compound was completely dissolved)”.

And the Solubility in water ([4]; 12 mg/mL)?
Its Solubility in water is “+ (+ indicates that the compound was completely dissolved)”.

And the Ki (dopamine D3 receptor [5])?
The Ki was 14.3 nM.

For `O=C(NCCCCN1CCN(c2cccc(Cl)c2Cl)CC1)c1cc2ccccc2[nH]1` [31j•HCl, N-(4-(4-(2,3-dichlorophenyl)piperazin-1-yl)butyl)-1H-indole-2-carboxamide, reference compound], which Ki (dopamine D3 receptor [6]) is on record?
The Ki was 15.6 nM.

Which results are given for `O=C1c2ccccc2C(=O)N1CCCCN1CCN(c2cccc(F)c2F)CC1` [Compound 3d, 2-(4-(4-(2,3-fluorophenyl)piperazin-1-yl)butyl)isoindoline-1,3-dione]?
Ki (dopamine D2 receptor [1]): 2.16 µM; D2 Receptor Displacement (%) (dopamine D2 receptor [1]; [11]): 17.7 ± 3.7%; Ki (dopamine D3 receptor [6]): 19.3 nM

With `O=C1c2ccccc2C(=O)N1CCCCN1CCN(c2ccc(Cl)cc2)CC1` [Compound 3i, 2-(4-(4-(4-chlorophenyl)piperazin-1-yl)butyl)isoindoline-1,3-dione] as the compound, how does the “D2 Receptor Displacement (%)” value (dopamine D2 receptor [1]; [11]) read?
Its value is 59.2 ± 18.3%.

For `O=C1c2ccccc2C(=O)N1CCCCN1CCN(c2cccc(Cl)c2Cl)CC1` [Compound 3j, 2-(4-(4-(2,3-dichlorophenyl)piperazin-1-yl)butyl)isoindoline-1,3-dione], which inhibition (dopamine D2 receptor [1]; [11]) is on record?
The inhibition was 70.3 ± 2.7%.

With `O=C1c2ccccc2C(=O)N1CCCCN1CCN(c2ccc(Cl)cc2F)CC1` [Compound 3m, 2-(4-(4-(4-chloro-2-fluorophenyl)piperazin-1-yl)butyl)isoindoline-1,3-dione] as the compound, how does the inhibition (dopamine D2 receptor [1]; [11]) read?
The inhibition was 2.8 ± 12%.

With `O=C1c2ccccc2C(=O)N1CCCCN1CCN(c2cc(C(F)(F)F)ccc2F)CC1` [Compound 3n, 2-(4-(4-(2-fluoro-5-(trifluoromethyl)phenyl)piperazin-1-yl)butyl)isoindoline-1,3-dione] as the compound, how does the inhibition (dopamine D2 receptor [1]; [11]) read?
The inhibition was -4.7 ± 7.8%.

With `O=C1c2ccccc2C(=O)N1CCCCN1CCN(c2cccc(C(F)(F)F)c2)CC1` [Compound 3p, 2-(4-(4-(3-(trifluoromethyl)phenyl)piperazin-1-yl)butyl)isoindoline-1,3-dione] as the compound, how does the inhibition (dopamine D2 receptor [1]; [11]) read?
The inhibition was 44 ± 1.6%.

For `O=C(NCCCCN1CCN(c2ccc(Cl)cc2)CC1)Nc1cnc2ccccc2c1` [Compound 8i, 1-(4-(4-(4-chlorophenyl)piperazin-1-yl)butyl)-3-(quinolin-3-yl)urea], which Ki (dopamine D2 receptor [1]) is on record?
The Ki was > 79.6 µM.

What about the inhibition (dopamine D2 receptor [1]; [10]) of the same compound?
The inhibition was 10.2 ± 6.7%.

What about the frequency of falling [2, 12] of the same compound?
The frequency of falling was “reduced the frequency of falling”.

And the latency to fall [2, 12]?
Its latency to fall is “increased the latency to fall”.

What about the “activation of signaling pathways downstream of D2 receptors” value (dopamine D2 receptor [7]) of the same compound?
Its value is “didn't activate”.

And the solubility ([3]; 3.3 mg/mL)?
The solubility was > 3300 µg/mL.

What about the solubility ([3]; 5 mg/mL) of the same compound?
Its solubility is < 5000 µg/mL.

And the solubility ([3]; 10 mg/mL)?
Its solubility is < 5000 µg/mL.

And the Solubility in water ([4]; 1 mg/mL)?
The Solubility in water was “+ (+ indicates that the compound was completely dissolved)”.

And the Solubility in water ([4]; 3 mg/mL)?
The Solubility in water was “− (− indicates that the compound was un-dissolved or not completely dissolved)”.

What about the Solubility in water ([4]; 6 mg/mL) of the same compound?
Its Solubility in water is “− (− indicates that the compound was un-dissolved or not completely dissolved)”.

What about the Solubility in water ([4]; 12 mg/mL) of the same compound?
Its Solubility in water is “− (− indicates that the compound was un-dissolved or not completely dissolved)”.

And the Ki (dopamine D3 receptor [5])?
Its Ki is 7.4 nM.

What about the “activation of signaling pathways downstream of D4 receptors (printed as D3 receptors)” value [8] of the same compound?
Its value is “didn't activate”.

And the “activation of signaling pathways downstream of D3 receptors” value (dopamine D3 receptor [9])?
Its value is “activated signaling pathways downstream of D3 receptors”.

What about the selectivity ratio (dopamine D3 receptor [6]) of the same compound?
Its selectivity ratio is > 10000.

Which “D2 Receptor Displacement (%)” value (dopamine D2 receptor [1]; [10]) does the source give for `O=C(NCCCCN1CCN(c2cc(C(F)(F)F)ccc2F)CC1)Nc1cnc2ccccc2c1` [Compound 8n, 1-(4-(4-(2-fluoro-5-(trifluoromethyl)phenyl)piperazin-1-yl)butyl)-3-(quinolin-3-yl)urea] here?
Its value is 24.9 ± 1.8%.

With `O=C(NCCCCN1CCN(c2cccc(C(F)(F)F)c2)CC1)Nc1cnc2ccccc2c1` [Compound 8p, 1-(4-(4-(3-(trifluoromethyl)phenyl)piperazin-1-yl)butyl)-3-(quinolin-3-yl)urea] as the compound, how does the “D2 Receptor Displacement (%)” value (dopamine D2 receptor [1]; [10]) read?
The value was −6.7 ± 4.2%.

Which inhibition (dopamine D2 receptor [1]; [10]) does the source give for `O=C(NCCCCN1CCN(c2ccc(Cl)cc2)CC1)Nc1cc2ccccc2cn1` [Compound 11i, 1-(4-(4-(4-chlorophenyl)piperazin-1-yl)butyl)-3-(isoquinolin-3-yl)urea] here?
Its inhibition is -14.7 ± 1.8%.

Which inhibition (dopamine D2 receptor [1]; [10]) does the source give for `O=C(NCCCCN1CCN(c2ccc(Cl)cc2)CC1)Nc1nc2ccccc2s1` [Compound 21i, 1-(benzothiazol-2-yl)-3-(4-(4-(4-chlorophenyl)piperazin-1-yl)butyl)urea] here?
The inhibition was 36.8 ± 6.5%.

For `O=C(NCCCCN1CCN(c2cccc(Cl)c2Cl)CC1)Nc1nc2ccccc2s1` [Compound 21j, 1-(benzothiazol-2-yl)-3-(4-(4-(2,3-dichlorophenyl)piperazin-1-yl)butyl)urea], which inhibition (dopamine D2 receptor [1]; [10]) is on record?
Its inhibition is 35.5 ± 3.4%.

With `O=C(NCCCCN1CCN(c2ccc(Cl)cc2Cl)CC1)Nc1nc2ccccc2s1` [Compound 21k, 1-(benzothiazol-2-yl)-3-(4-(4-(2,4-dichlorophenyl)piperazin-1-yl)butyl)urea] as the compound, how does the “D2 Receptor Displacement (%)” value (dopamine D2 receptor [1]; [10]) read?
The value was 40.8 ± 5.6%.

For `O=C(NCCCCN1CCN(c2cccc(Cl)c2Cl)CC1)c1cc2ccccc2[nH]1` [Compound 31j, N-(4-(4-(2,3-dichlorophenyl)piperazin-1-yl)butyl)-1H-indole-2-carboxamide, reference compound], which Ki (dopamine D3 receptor [5]) is on record?
Its Ki is 6210 nM.

For `CCN1CCCC1CNC(=O)c1cc(S(N)(=O)=O)ccc1OC` (centres unmarked) [sulpiride, reference compound], which inhibition (dopamine D2 receptor [1]; [11]) is on record?
Its inhibition is 92.2 ± 0.1%.
